This assay addresses T1, E3 ubiquitin-protein ligase Mdm2 [23-117] (Human, UniProt Q00987).
T1 construct: 23-117
The assay can be described thus: Inhibition AlphaScreen Assay. On the procedure: A mix consisting of 20 nM GST-MDM2 protein (aa 23-117) and 20 nM biotinylated p53 wt peptide (encompassing aa 16-27 of wt human p53, amino acid sequence QETFSDLWKLLP-Ttds-Lys-Biotin, molecular weight 2132.56 g/mol) is prepared in assay buffer (50 mM Tris/HCl pH 7.2; 120 mM NaCl; 0.1% bovine serum albumin (BSA); 5 mM dithiothreitol (DTT); 1 mM ethylenediaminetetraacetic acid (EDTA); 0.01% Tween 20). 30 μL of the mix is added to the compound dilutions and incubated for 15 min at rt while gently shaking the plate at 300 rounds per minute (rpm). Subsequently, 15 μL of premixed AlphaLISA Glutathione Acceptor Beads and AlphaScreen Streptavidin Donor Beads from PerkinElmer (in assay buffer at a concentration of 10 μg/mL each) are added and the samples are incubated for 30 min at rt in the dark (shaking 300 rpm). Afterwards, the signal is measured in a PerkinElmer Envision HTS Multilabel Reader using the AlphaScreen protocol from PerkinElmer.Each plate contains negative controls where biotinylated p53-peptide and GST-MDM2 are left out and replaced by assay buffer. Negative control values are entered as low basis value when using the software GraphPad Prism for calculations.
A general note: In Alpha technology, singlet oxygen from a donor bead excites a nearby acceptor bead.

T1 sequence (Q00987 23-117): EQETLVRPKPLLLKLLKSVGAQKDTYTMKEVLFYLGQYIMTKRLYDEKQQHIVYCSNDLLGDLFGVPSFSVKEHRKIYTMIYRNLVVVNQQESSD

In general, IC50 refers to the concentration that inhibits the measured activity by half. A lower IC50 goes with greater potency in that assay. As to `O=C(O)c1ccc2c(c1)nc1n2CC[C@H]2[C@@H]1[C@H](c1cccc(Cl)c1F)[C@]1(C(=O)Nc3cc(Cl)ccc31)N2CC1CC1` [US10882866, Example Ib-171], the IC50 was determined as 10 nM.

(Values after BindingDB's records for patent US10882866 (Boehringer Ingelheim International GmbH, 2021).)
